Laboratory results: PMC11574021, “CEP192 localises mitotic Aurora-A activity by priming its interaction with TPX2” (The EMBO Journal, 2024)

How the values were obtained:
[1] = system: LATS2-pS83 in RPE1 p53-/- cells; assay: Immunofluorescence, LATS2-pS83 spindle pole signal intensity, RPE1 p53-/-; assay type: cell-based, Homo sapiens; conditions: Aurora-A inhibitor 30 min (500 nM)
Procedure: As noted in the figures, the following drugs were incubated with cells for 30 min at 37 °C: Aurora-B-i ZM447439 2 µM [10 mM], PLK1-I BI2536 1 µM [10 mM] and Aurora-A-i MLN8237 [5 mM] was used at 250 and 500 nM in U251 and RPE1 cells, respectively. Drugs were resuspended in DMSO to the stock concentrations indicated in square brackets. BI2536 (HY-50698), MLN8237 (HY-10971) and ZM447439 (HY-10128) were all purchased from MedChemExpress. For western blotting, a 20-min pre-treatment with proteasome inhibitor (20 µM MG-132, MerckMillipore, 47490 [20 mM]) was required prior to the addition of DMSO control or kinase inhibitors. This prevented mitotic exit as a consequence of checkpoint override following Aurora-A and Aurora-B inhibitor addition.
For siRNA depletion, 1 × 10^5 cells were seeded in six-well plates and transfected as described above for 48 h prior to fixation. For all other experiments, 2.5 × 10^5 cells were seeded in six-well plates and grown for 24 h before fixation. All cells were grown on 12 mm diameter glass coverslips (VWR, 631–1577). […]
For CEP192, LATS2-pS83, PCNT, PLK1 and γ-tubulin intensity, a 20-pixel diameter circle was centred over each centrosome and the intensity measured. […]

[2] = system: Aurora-A in U251 and RPE1 cells; assay: Western blot, total Aurora-A protein level; assay type: cell-based, Homo sapiens; conditions: mitotic U251 and RPE1 lysates, siRNA 48 h
Procedure: Cells were lysed on ice for 30 min in lysis buffer (50 mM tris pH 8.0, 300 mM NaCl, 0.2%(v/v) NP-40, 10%(v/v) glycerol, protease inhibitor cocktail C, phosphatase inhibitor cocktail 3 (Sigma, 1:200 dilution), 100 nM okadaic acid (Enzo, ALX-350-003-C100)). Lysates were then centrifuged at 14,000 × g, 15 min, 4 °C, the supernatants were transferred to a fresh tube, and the pellet was discarded. Protein concentrations were measured by Bradford assay using Protein Assay Dye Reagent Concentrate (Bio-Rad Laboratories, 5000006). NuPage LDS sample buffer, supplemented with NuPAGE sample reducing agent (Invitrogen) were added prior to boiling for 10 min at 90 °C. Equal amounts of protein, between 8–20 µg/lane, were loaded into pre-cast 4–12% Bis-Tris gels (Invitrogen, NP0322BOX) and proteins separated in 1x MOPS buffer (Invitrogen) and transferred to nitrocellulose membrane (0.45 µM). Nitrocellulose was then blocked in 5% milk (wt/v) in TBS, 0.1% Tween (v/v) (TBST) for 1 h. Primary and secondary antibodies were diluted in 5% milk, TBST and incubated overnight at 4 °C or for 1 h at room temperature, respectively. Species-specific secondary antibodies conjugated to horseradish peroxidase (HRP) were used (anti-Mouse, Cytiva NA931V; anti-Rabbit, Cytiva NA934; anti-Sheep, Jackson 713-035-003). Membranes were washed for 1 h in TBST, changing the buffer five times, after each antibody incubation. […]

For COc1cc(Nc2ncc3c(n2)-c2ccc(Cl)cc2C(c2c(F)cccc2OC)=NC3)ccc1C(=O)O [Alisertib], the “reduction of pS83 LATS2 levels” value [1] was 50% and the “reduction of pS83 LATS2 levels” value ([1]; listed as Aurora-A inhibition) was “about 50%”.
5′-CGGUAGUGAUAAAAGCUCAtt-3′ [siTPX2] was tested, and the “total Aurora-A protein levels” value [2] was “decreased total Aurora-A protein levels”.
